Where two headings read alike, the source gives them in different places.
What was measured:
[1] = target: T1, human GIP receptor (hGIPR) (Homo sapiens, UniProt P48546); assay: [125I]-GIP binding, SPA with membranes of CHO cells expressing hGIPR
T1 construct: expressed in transfected cells; crude membranes
T1 sequence (P48546 22-466): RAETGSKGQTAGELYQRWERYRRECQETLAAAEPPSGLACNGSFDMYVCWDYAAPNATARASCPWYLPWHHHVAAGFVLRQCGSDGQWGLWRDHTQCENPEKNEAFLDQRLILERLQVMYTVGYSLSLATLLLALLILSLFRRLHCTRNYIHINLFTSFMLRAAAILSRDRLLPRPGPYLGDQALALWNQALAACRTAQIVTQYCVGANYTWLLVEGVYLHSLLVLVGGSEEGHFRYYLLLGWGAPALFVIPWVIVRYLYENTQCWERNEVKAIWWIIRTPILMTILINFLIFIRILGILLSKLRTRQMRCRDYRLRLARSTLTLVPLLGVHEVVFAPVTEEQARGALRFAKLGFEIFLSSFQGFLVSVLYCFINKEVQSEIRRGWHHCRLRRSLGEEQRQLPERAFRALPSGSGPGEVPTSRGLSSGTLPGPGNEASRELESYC

hGCGR = target: T2, hGCGR (Homo sapiens, UniProt P47871); assay: Functional cAMP formation (HTRF) in HEK-293 clonal cells expressing hGCGR, 0.1% bovine casein, without or with 1.0% human serum albumin; format: cell-based; conditions: cAMP, 37° C.
T2 construct: expressed in transfected cells
T2 sequence (P47871 26-477): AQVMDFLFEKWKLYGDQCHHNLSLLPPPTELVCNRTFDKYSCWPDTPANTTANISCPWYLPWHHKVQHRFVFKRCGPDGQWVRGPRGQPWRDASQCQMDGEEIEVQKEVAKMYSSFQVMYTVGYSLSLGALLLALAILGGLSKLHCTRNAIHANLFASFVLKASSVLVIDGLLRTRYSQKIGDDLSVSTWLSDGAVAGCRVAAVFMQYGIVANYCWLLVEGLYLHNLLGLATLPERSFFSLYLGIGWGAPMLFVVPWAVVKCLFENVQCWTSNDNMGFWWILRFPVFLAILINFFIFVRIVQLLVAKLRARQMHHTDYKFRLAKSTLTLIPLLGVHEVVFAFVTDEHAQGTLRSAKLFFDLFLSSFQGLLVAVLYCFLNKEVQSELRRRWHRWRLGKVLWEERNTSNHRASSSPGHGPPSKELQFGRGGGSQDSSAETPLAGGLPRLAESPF
How it was run: (§1)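 Cells were stimulated with peptide for 30 min at 37° C, then lysed in buffer carrying cAMP-d2 and anti-cAMP Eu3+-cryptate for a competitive HTRF read after at least 60 min at room temperature. The 665/620 nm ratio was converted to nM cAMP against a standard curve.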

hGIPR = target: T3, hGIPR (Homo sapiens, UniProt P48546); assay: Functional cAMP formation (HTRF) in HEK-293 clonal cells expressing hGIPR, 0.1% bovine casein, without or with 1.0% human serum albumin; format: cell-based; conditions: for Emax: percent of maximal response to GIP(1-42)NH2; for EC50: cAMP
T3 construct: expressed in transfected cells
T3 sequence (P48546 22-466): T1 sequence (P48546 22-466)
How it was run: as §1

hGLP-1R = hGLP-1R (Homo sapiens, UniProt P43220); assay: Functional cAMP formation (HTRF) in HEK-293 clonal cells expressing hGLP-1R, 0.1% bovine casein, without or with 1.0% human serum albumin; format: cell-based; parameters: expressed in transfected cells; conditions: for Emax: percent of maximal response to GLP-1(7-36)NH2; for EC50: cAMP
Sequence of hGLP-1R (P43220 24-463): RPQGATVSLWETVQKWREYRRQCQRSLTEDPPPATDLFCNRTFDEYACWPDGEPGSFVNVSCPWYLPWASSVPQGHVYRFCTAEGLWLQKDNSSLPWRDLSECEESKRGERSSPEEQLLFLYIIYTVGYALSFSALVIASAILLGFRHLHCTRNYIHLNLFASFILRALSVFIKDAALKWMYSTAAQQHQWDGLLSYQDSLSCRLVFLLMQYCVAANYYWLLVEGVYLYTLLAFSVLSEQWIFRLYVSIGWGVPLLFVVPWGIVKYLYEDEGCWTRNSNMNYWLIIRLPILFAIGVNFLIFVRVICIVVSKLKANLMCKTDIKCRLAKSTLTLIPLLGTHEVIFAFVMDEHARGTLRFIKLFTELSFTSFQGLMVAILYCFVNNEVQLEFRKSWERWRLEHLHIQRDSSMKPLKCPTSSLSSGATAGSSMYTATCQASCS
How it was run: as §1

[2] = human GIPR, geometric mean (SEM, n), read-out: Binding Affinity Ki, nM (SEM, n) hGIPR
[3] = 0.1% bovine casein (no human serum albumin), geometric mean, read-out: hGCGR EC50, nM (SEM, n)
[4] = 0.1% bovine casein and 1.0% human serum albumin, geometric mean (SEM, n), read-out: hGCGR EC50, nM (SEM, n)
[5] = HEK293, cAMP, 37° C., 0.1% bovine casein, arithmetic mean, read-out: hGIPR Emax, % ± SEM
[6] = 37° C., 0.1% bovine casein (no human serum albumin), geometric mean, read-out: hGIPR EC50, nM (SEM, n)
[7] = 37° C., 0.1% bovine casein (no human serum albumin), geometric mean, read-out: hGLP-1R EC50, nM (SEM, n)
[8] = hGCGR EC50, nM (SEM, n), 0.1% bovine casein (no human serum albumin), geometric mean
[9] = hGCGR EC50, nM (SEM, n), 0.1% bovine casein and 1.0% human serum albumin, geometric mean (SEM, n)
[10] = HEK293, read-out: hGIPR Emax, % ± SEM, cAMP, 37° C., 0.1% bovine casein and 1.0% human serum albumin
[11] = hGIPR EC50, nM (SEM, n), 37° C., 0.1% bovine casein (no human serum albumin), geometric mean
[12] = hGLP-1R EC50, nM (SEM, n), 37° C., 0.1% bovine casein (no human serum albumin), geometric mean

Compound: CCCCCCCCCCCC(=O)N[C@@H](CCC(=O)NCCOCCOCC(=O)NCCOCCOCC(=O)NCCOCCOCC(=O)NCCCC[C@H](NC(=O)[C@H](CCCN)NC(=O)[C@H](CC(=O)O)NC(=O)[C@H](CC(C)C)NC(=O)[C@](C)(CC(C)C)NC(=O)[C@@H](NC(=O)C(C)(C)NC(=O)[C@H](CCCCNC(=O)COCCOCCNC(=O)COCCOCCNC(=O)COCCOCCNC(=O)CC[C@H](NC(=O)CCCCCCCCCCC)C(=O)O)NC(=O)[C@H](CC(=O)O)NC(=O)[C@H](CO)NC(=O)[C@@H](NC(=O)[C@](C)(Cc1ccccc1F)NC(=O)[C@@H](NC(=O)CNC(=O)[C@H](CCC(=O)O)NC(=O)C(C)(C)NC(=O)[C@@H](N)Cc1ccc(O)cc1)[C@@H](C)O)[C@@H](C)O)[C@@H](C)CC)C(=O)N[C@@H](C)C(=O)N[C@@H](CCC(N)=O)C(=O)NC(C)(C)C(=O)N[C@@H](CCC(=O)O)C(=O)N[C@@H](Cc1ccccc1)C(=O)N[C@H](C(=O)N[C@H](CCC(=O)O)C(=O)N[C@@](C)(Cc1ccc(O)cc1)C(=O)N[C@@H](CC(C)C)C(=O)N[C@H](C(=O)N[C@@H](CCC(=O)O)C(=O)NCC(=O)NCC(=O)N1CCC[C@H]1C(=O)N[C@@H](CO)C(=O)N[C@@H](CO)C(=O)NCC(=O)N[C@@H](C)C(=O)N1CCC[C@H]1C(=O)N1CCC[C@H]1C(=O)N1CCC[C@H]1C(=O)N[C@@H](CO)C(N)=O)[C@@H](C)CC)[C@@H](C)CC)C(=O)O [Example 421]
- Ki [1, 2]: 0.0245 nM
- EC50 (hGCGR; [3]): > 9950 nM
- EC50 (hGCGR; [4]): > 9950 nM
- Emax (hGIPR; HEK293, cAMP, 37° C., 0.1% bovine casein and 1.0% human serum albumin, read-out: hGIPR Emax, % ± SEM): 98%
- Emax (hGIPR; [5]): 100%
- EC50 (hGIPR; [6]): 0.00618 nM
- Emax (hGLP-1R; HEK293, cAMP, 37° C., 0.1% bovine casein and 1.0% human serum albumin, read-out: hGLP-1R Emax, % ± SEM): 105%
- EC50 (hGLP-1R; [7]): 0.057 nM

Compound: CC[C@H](C)[C@H](NC(=O)[C@H](CC(C)C)NC(=O)[C@](C)(Cc1ccc(O)cc1)NC(=O)[C@H](CCCCNC(=O)COCCOCCNC(=O)COCCOCCNC(=O)CC[C@H](NC(=O)CCCCCCCCCOc1ccc(C(=O)O)cc1)C(=O)O)NC(=O)[C@@H](NC(=O)[C@H](Cc1ccccc1)NC(=O)[C@H](CCCN)NC(=O)C(C)(C)NC(=O)[C@H](CCC(N)=O)NC(=O)[C@H](C)NC(=O)[C@H](CCC(N)=O)NC(=O)[C@H](CCCN)NC(=O)[C@H](CC(=O)O)NC(=O)[C@H](CC(C)C)NC(=O)[C@](C)(CC(C)C)NC(=O)[C@@H](NC(=O)C(C)(C)NC(=O)[C@H](Cc1ccncc1)NC(=O)[C@H](CC(=O)O)NC(=O)[C@H](CO)NC(=O)[C@@H](NC(=O)[C@](C)(Cc1ccccc1F)NC(=O)[C@@H](NC(=O)CNC(=O)[C@H](CCC(=O)O)NC(=O)C(C)(C)NC(=O)[C@@H](N)Cc1ccc(O)cc1)[C@@H](C)O)[C@@H](C)O)[C@@H](C)CC)[C@@H](C)CC)C(=O)N[C@@H](CCCCNC(=O)COCCOCCNC(=O)COCCOCCNC(=O)CC[C@H](NC(=O)CCCCCCCCCOc1ccc(C(=O)O)cc1)C(=O)O)C(=O)NCC(=O)NCC(=O)N1CCC[C@H]1C(=O)N[C@@H](CO)C(=O)N[C@@H](CO)C(=O)NCC(=O)N[C@@H](C)C(=O)N1CCC[C@H]1C(=O)N1CCC[C@H]1C(=O)N1CCC[C@H]1C(=O)N[C@@H](CO)C(N)=O [Example 440]
- Ki [1]: 0.0312 nM
- EC50 (hGCGR; [8]): > 10100 nM
- EC50 (hGCGR; [9]): > 10100 nM
- Emax (hGIPR; [10]): 90.3%
- EC50 (hGIPR; [11]): 0.0104 nM
- EC50 (hGLP-1R; [12]): 0.18 nM
- EC50 (hGLP-1R; hGLP-1R EC50, nM (SEM, n), 37° C., 0.1% bovine casein and 1.0% human serum albumin, geometric mean (SEM, n)): 2.74 nM

Compound: CC[C@H](C)[C@H](NC(=O)[C@H](CC(C)C)NC(=O)[C@](C)(Cc1ccc(O)cc1)NC(=O)[C@H](CCCCNC(=O)COCCOCCNC(=O)COCCOCCNC(=O)CC[C@H](NC(=O)CCCCCCCCCCCCC(=O)O)C(=O)O)NC(=O)[C@@H](NC(=O)[C@H](Cc1ccccc1)NC(=O)[C@H](CCCN)NC(=O)C(C)(C)NC(=O)[C@H](CCC(N)=O)NC(=O)[C@H](C)NC(=O)[C@H](CCC(N)=O)NC(=O)[C@H](CCCN)NC(=O)[C@H](CC(=O)O)NC(=O)[C@H](CC(C)C)NC(=O)[C@](C)(CC(C)C)NC(=O)[C@@H](NC(=O)C(C)(C)NC(=O)[C@@H](NC(=O)[C@H](CC(=O)O)NC(=O)[C@H](CO)NC(=O)[C@@H](NC(=O)[C@](C)(Cc1ccccc1F)NC(=O)[C@@H](NC(=O)CNC(=O)[C@H](CCC(=O)O)NC(=O)C(C)(C)NC(=O)[C@@H](N)Cc1ccc(O)cc1)[C@@H](C)O)[C@@H](C)O)C(C)C)[C@@H](C)CC)[C@@H](C)CC)C(=O)N[C@@H](CCCCNC(=O)COCCOCCNC(=O)COCCOCCNC(=O)CC[C@H](NC(=O)CCCCCCCCCCCCC(=O)O)C(=O)O)C(=O)NCC(=O)NCC(=O)N1CCC[C@H]1C(=O)N[C@@H](CO)C(=O)N[C@@H](CO)C(=O)NCC(=O)N[C@@H](C)C(=O)N1CCC[C@H]1C(=O)N1CCC[C@H]1C(=O)N1CCC[C@H]1C(=O)N[C@@H](CO)C(N)=O [Example 448]
- Ki [1, 2]: 0.0314 nM
- EC50 (hGCGR; [3]): > 9950 nM
- EC50 (hGCGR; [4]): > 9950 nM
- Emax (hGIPR; [5]): 105%
- EC50 (hGIPR; [6]): 0.0164 nM
- EC50 (hGIPR; 37° C., 0.1% bovine casein and 1.0% human serum albumin, geometric mean (SEM, n), read-out: hGIPR EC50, nM (SEM, n)): 1.41 nM
- EC50 (hGLP-1R; [7]): 0.157 nM

Compound: CC[C@H](C)[C@H](NC(=O)[C@H](CC(C)C)NC(=O)[C@](C)(Cc1ccc(O)cc1)NC(=O)[C@H](CCCCNC(=O)CCCCCNC(=O)COCCOCCNC(=O)CC[C@H](NC(=O)CCCCCCCCCOc1ccc(C(=O)O)cc1)C(=O)O)NC(=O)[C@@H](NC(=O)[C@H](Cc1ccccc1)NC(=O)[C@H](CCCN)NC(=O)C(C)(C)NC(=O)[C@H](CCC(N)=O)NC(=O)[C@H](C)NC(=O)[C@H](CCC(N)=O)NC(=O)[C@H](CCCN)NC(=O)[C@H](CC(=O)O)NC(=O)[C@H](CC(C)C)NC(=O)[C@](C)(CC(C)C)NC(=O)[C@@H](NC(=O)C(C)(C)NC(=O)[C@H](Cc1ccncc1)NC(=O)[C@H](CC(=O)O)NC(=O)[C@H](CO)NC(=O)[C@@H](NC(=O)[C@](C)(Cc1ccccc1F)NC(=O)[C@@H](NC(=O)CNC(=O)[C@H](CCC(=O)O)NC(=O)C(C)(C)NC(=O)[C@@H](N)Cc1ccc(O)cc1)[C@@H](C)O)[C@@H](C)O)[C@@H](C)CC)[C@@H](C)CC)C(=O)N[C@@H](CCCCNC(=O)CCCCCNC(=O)COCCOCCNC(=O)CC[C@H](NC(=O)CCCCCCCCCOc1ccc(C(=O)O)cc1)C(=O)O)C(=O)NCC(=O)NCC(=O)N1CCC[C@H]1C(=O)N[C@@H](CO)C(=O)N[C@@H](CO)C(=O)NCC(=O)N[C@@H](C)C(=O)N1CCC[C@H]1C(=O)N1CCC[C@H]1C(=O)N1CCC[C@H]1C(=O)N[C@@H](CO)C(N)=O [Example 455]
- Ki [1]: 0.0143 nM
- EC50 (hGCGR; [8]): > 9950 nM
- EC50 (hGCGR; [9]): > 9950 nM
- Emax (hGIPR; [10]): 91.8%
- EC50 (hGIPR; [11]): 0.0146 nM
- Emax (hGLP-1R; HEK293, read-out: hGLP-1R Emax, % ± SEM, cAMP, 37° C., 0.1% bovine casein, arithmetic mean): 117%
- EC50 (hGLP-1R; [12]): 0.219 nM
